Measured values: PubChem BioAssay AID248 (DTP/NCI, 2004)
Where “and” joins values, the source holds several entries; their conditions need not be identical. Equal values may be shown once. Inconclusive results and toxic doses are left out. No stated cut-off is given here; in the data, active means T/C of 150% or more; inactive means T/C below 125%.

Tested on: L1210 leukemia ip in BDF1 mice, survival T/C
Experiment: NCI In Vivo Anticancer Drug Screen. Data for tumor model L1210 Leukemia (intraperitoneal) in B6D2F1 (BDF1) mice
Conditions: endpoint: mean survival time, higher = longer survival
Procedure, shortened: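 Each compound was tested against a transplantable tumor grown in mice. The endpoint was survival, with treated animals benchmarked against vehicle controls as a simple ratio.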

[1] = dose: 100.0 mg/kg/injection, schedule: Q01DX009 (ip), vehicle: Klucel (hydroxypropylcellulose) (HPC)
[2] = dose: 100.0 mg/kg/injection, schedule: Q04DX003 (ip), vehicle: Klucel (hydroxypropylcellulose) (HPC)
[3] = dose: 200.0 mg/kg/injection, schedule: Q01DX009 (ip), vehicle: Klucel (hydroxypropylcellulose) (HPC)
[4] = dose: 200.0 mg/kg/injection, schedule: Q04DX003 (ip), vehicle: Klucel (hydroxypropylcellulose) (HPC)
[5] = dose: 400.0 mg/kg/injection, schedule: Q01DX009 (ip), vehicle: Klucel (hydroxypropylcellulose) (HPC)
[6] = dose: 400.0 mg/kg/injection, schedule: Q04DX003 (ip), vehicle: Klucel (hydroxypropylcellulose) (HPC)
[7] = dose: 50.0 mg/kg/injection, schedule: Q01DX001 (ip), vehicle: saline
[8] = dose: 100.0 mg/kg/injection, schedule: Q01DX001 (ip), vehicle: saline
[9] = dose: 200.0 mg/kg/injection, schedule: Q01DX001 (ip), vehicle: saline
[10] = dose: 400.0 mg/kg/injection, schedule: Q01DX001 (ip), vehicle: saline
[11] = dose: 100.0 mg/kg/injection, schedule: Q04DX003 (ip), vehicle: saline with Tween-80
[12] = dose: 200.0 mg/kg/injection, schedule: Q04DX003 (ip), vehicle: saline with Tween-80

Measured: T/C

Cc1cccc(OC(=O)Nc2cccc(Cl)c2)c1C
inactive: dose: 100.0 mg/kg/injection, schedule: Q01DX001 (ip), vehicle: Klucel (hydroxypropylcellulose) (HPC) 94 % of control | [1] 94 % of control and 100 % of control | dose: 100.0 mg/kg/injection, schedule: Q04DX002 (ip), vehicle: Klucel (hydroxypropylcellulose) (HPC) 102 % of control and 105 % of control | [2] 101 % of control | dose: 200.0 mg/kg/injection, schedule: Q01DX001 (ip), vehicle: Klucel (hydroxypropylcellulose) (HPC) 92 % of control | [3] 98 % of control and 100 % of control | dose: 200.0 mg/kg/injection, schedule: Q04DX002 (ip), vehicle: Klucel (hydroxypropylcellulose) (HPC) 96 % of control and 98 % of control | [4] 97 % of control | dose: 400.0 mg/kg/injection, schedule: Q01DX001 (ip), vehicle: Klucel (hydroxypropylcellulose) (HPC) 92 % of control | [5] 94 % of control and 96 % of control | dose: 400.0 mg/kg/injection, schedule: Q04DX002 (ip), vehicle: Klucel (hydroxypropylcellulose) (HPC) 107 % of control and 109 % of control | [6] 93 % of control

Cc1cc(N)c(C(=O)O)cc1C
inactive: [7] 104 % of control | [8] 107 % of control | [9] 104 % of control | [10] 104 % of control

CC(C)=CC(=O)OC(=O)C=C(C)C
inactive: dose: 100.0 mg/kg/injection, schedule: Q01DX009 (ip), vehicle: other 105 % of control | [11] 98 % of control | dose: 200.0 mg/kg/injection, schedule: Q01DX009 (ip), vehicle: other 88 % of control | [12] 96 % of control | dose: 400.0 mg/kg/injection, schedule: Q01DX009 (ip), vehicle: other 91 % of control | dose: 400.0 mg/kg/injection, schedule: Q04DX003 (ip), vehicle: saline with Tween-80 89 % of control

BrCCCCCCCCCCC1(c2ccccc2)OCCO1
inactive: [1] 107 % of control | [3] 98 % of control | [5] 93 % of control

CNC1C(O)C(OC)OC2COC(c3ccccc3)OC21 (stereo unspecified)
inactive: [11] 93 % of control | [12] 93 % of control

CC(=O)Nc1cc(C)cc(C)c1
inactive: dose: 50.0 mg/kg/injection, schedule: Q01DX001 (ip), vehicle: carboxymethylcellulose (CMC) 105 % of control | dose: 100.0 mg/kg/injection, schedule: Q01DX001 (ip), vehicle: carboxymethylcellulose (CMC) 111 % of control | dose: 200.0 mg/kg/injection, schedule: Q01DX001 (ip), vehicle: carboxymethylcellulose (CMC) 111 % of control | dose: 400.0 mg/kg/injection, schedule: Q01DX001 (ip), vehicle: carboxymethylcellulose (CMC) 105 % of control

C/C(=N/N(C)C)c1ccc([N+](=O)[O-])cc1
inactive: dose: 100.0 mg/kg/injection, schedule: Q01DX009 (ip), vehicle: saline 113 % of control | dose: 200.0 mg/kg/injection, schedule: Q01DX009 (ip), vehicle: saline 89 % of control

O=C1CSc2cc[nH]c21
inactive: [1] 95 % of control | [2] 100 % of control | [4] 95 % of control | [6] 98 % of control

CCOC(=O)N1C=Cc2c(c3ccccc3n2C)N1C(=O)OCC
inactive: [8] 93 % of control | [9] 104 % of control | [10] 100 % of control

Fc1ccccc1-c1nnc(-c2ccccc2)o1
inactive: [2] 98 % of control | [4] 113 % of control | [6] 103 % of control

Cc1cc(Cl)cc(CN(C)C)c1O.[Cu+2]
inactive: [7] 97 % of control | [8] 97 % of control | [9] 113 % of control
